Data taken from ChEMBL document CHEMBL1909046, “DrugMatrix in vitro pharmacology data”.

Legend:
[1] = target: Tyrosine-protein kinase Lck (Homo sapiens, UniProt P06239); assay: DRUGMATRIX: Protein Tyrosine Kinase, LCK enzyme inhibition (substrate: Poly(Glu:Tyr)); type: cell-based, Insect cells; details: Not Active = under 50% inhibition at 10 µM
[2] = target: T1, Muscarinic acetylcholine receptor M4 (Homo sapiens, UniProt P08173); type: cell membranes, CHO-K1, Membrane; also: in other assays of this panel Not Active means under 50% inhibition at 10 µM
T1 sequence (P08173 whole entry): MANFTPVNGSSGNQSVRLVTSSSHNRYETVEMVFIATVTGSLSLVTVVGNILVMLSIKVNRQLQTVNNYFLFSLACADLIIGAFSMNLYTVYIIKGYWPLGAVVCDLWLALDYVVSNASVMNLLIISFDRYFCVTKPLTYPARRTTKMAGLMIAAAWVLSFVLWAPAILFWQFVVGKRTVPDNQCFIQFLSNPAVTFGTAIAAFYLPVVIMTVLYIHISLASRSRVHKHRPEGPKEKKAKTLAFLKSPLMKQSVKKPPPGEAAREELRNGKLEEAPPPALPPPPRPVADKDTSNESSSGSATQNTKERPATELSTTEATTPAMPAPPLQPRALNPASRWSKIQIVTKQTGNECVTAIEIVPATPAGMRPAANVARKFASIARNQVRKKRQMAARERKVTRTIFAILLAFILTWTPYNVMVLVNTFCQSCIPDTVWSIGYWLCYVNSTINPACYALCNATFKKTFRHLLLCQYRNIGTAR

[3] = target: T2, Muscarinic acetylcholine receptor M5 (Homo sapiens, UniProt P08912); type: cell membranes, CHO-K1, Membrane; also: in other assays of this panel Not Active means under 50% inhibition at 10 µM
T2 sequence (P08912 whole entry): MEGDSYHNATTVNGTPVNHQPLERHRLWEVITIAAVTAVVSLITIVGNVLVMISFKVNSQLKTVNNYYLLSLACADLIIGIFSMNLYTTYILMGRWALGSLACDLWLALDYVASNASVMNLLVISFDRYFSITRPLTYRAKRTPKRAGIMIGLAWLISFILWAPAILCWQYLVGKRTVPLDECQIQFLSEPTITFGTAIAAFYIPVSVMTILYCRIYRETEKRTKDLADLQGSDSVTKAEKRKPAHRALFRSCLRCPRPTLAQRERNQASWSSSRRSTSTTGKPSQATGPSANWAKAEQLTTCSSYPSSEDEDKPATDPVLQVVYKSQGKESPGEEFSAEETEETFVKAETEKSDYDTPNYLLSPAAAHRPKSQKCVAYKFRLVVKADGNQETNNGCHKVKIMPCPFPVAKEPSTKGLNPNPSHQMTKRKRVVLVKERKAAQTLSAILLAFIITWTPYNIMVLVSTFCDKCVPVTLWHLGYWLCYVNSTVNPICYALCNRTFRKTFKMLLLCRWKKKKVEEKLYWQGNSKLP

Melanocortin receptor 4 = Melanocortin receptor 4 (Homo sapiens, UniProt P32245); type: cell membranes, HEK293, Membrane; details: hek293; also: in other assays of this panel Not Active means under 50% inhibition at 10 µM
[4] = target: Protein kinase C alpha type (Homo sapiens, UniProt P17252); type: cell-based; details: sf9;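 also: inhibition of PKCalpha kinase activity measured in an enzyme assay with histone as the phosphorylation substrate; in other assays of this panel Not Active means under 50% inhibition at 10 µM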

Chain of Tyrosine-protein kinase Lck (P06239 whole entry): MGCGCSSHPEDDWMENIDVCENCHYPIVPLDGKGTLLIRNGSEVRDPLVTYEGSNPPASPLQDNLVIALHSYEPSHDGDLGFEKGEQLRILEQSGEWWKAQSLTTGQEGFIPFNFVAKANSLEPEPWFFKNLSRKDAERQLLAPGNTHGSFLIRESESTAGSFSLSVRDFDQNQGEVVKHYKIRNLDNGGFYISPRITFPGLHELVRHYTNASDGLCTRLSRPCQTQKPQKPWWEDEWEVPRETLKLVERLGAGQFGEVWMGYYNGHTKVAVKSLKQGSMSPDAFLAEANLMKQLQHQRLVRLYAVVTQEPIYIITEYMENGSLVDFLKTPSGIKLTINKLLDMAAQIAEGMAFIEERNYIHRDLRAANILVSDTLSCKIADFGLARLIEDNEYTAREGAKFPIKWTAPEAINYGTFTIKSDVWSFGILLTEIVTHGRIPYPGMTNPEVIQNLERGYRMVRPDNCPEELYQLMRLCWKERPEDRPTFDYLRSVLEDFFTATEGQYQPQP
Chain of Melanocortin receptor 4 (P32245 whole entry): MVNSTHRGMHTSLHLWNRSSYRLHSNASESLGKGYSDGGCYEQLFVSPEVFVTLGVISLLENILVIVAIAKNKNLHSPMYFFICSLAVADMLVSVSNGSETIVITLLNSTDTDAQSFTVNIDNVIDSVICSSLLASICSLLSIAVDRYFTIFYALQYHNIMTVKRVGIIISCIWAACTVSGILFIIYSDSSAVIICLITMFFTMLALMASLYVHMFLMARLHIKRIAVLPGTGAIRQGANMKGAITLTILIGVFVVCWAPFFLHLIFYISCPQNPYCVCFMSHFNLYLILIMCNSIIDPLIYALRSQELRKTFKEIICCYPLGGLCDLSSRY

Row | SMILES | IC50 ([1]; insect cells) | IC50 ([2]; cho-k1) | IC50 ([3]; cho-k1) | IC50 (Melanocortin receptor 4) | IC50 [4] | IC50 ([2]; read-out: IC50) | Ki ([2]; read-out: Ki) | IC50 ([3]; read-out: IC50) | Ki ([3]; read-out: Ki) | IC50 ([1]; read-out: IC50)
1 | C[C@@H]1CC[C@@]2(OC1)O[C@H]1[C@@H](O)[C@H]3[C@@H]4CC[C@H]5C[C@@H](O[C@@H]6O[C@H](CO)[C@H](O[C@@H]7O[C@H](CO)C(O)[C@H](O[C@@H]8OC[C@@H](O)[C@H](O)[C@H]8O)[C@H]7O[C@@H]7O[C@H](CO)[C@H](O)[C@H](O[C@@H]8O[C@H](CO)[C@@H](O)[C@H](O)[C@H]8O)[C@H]7O)[C@H](O)[C@H]6O)[C@H](O)C[C@]5(C)[C@H]4CC[C@]3(C)[C@H]1[C@@H]2C (some centres not stated) [DIGITONIN] | Not Active | Not Active | Not Active | Not Active | Not Active | – | – | – | – | –
2 | OC(CCCN1CCCCC1)(c1ccccc1)c1ccccc1 [DIPHENIDOL] | Not Active | – | – | Not Active | Not Active | 271 nM | 38 nM | 1190 nM | 855 nM | –
3 | C[C@H]1O[C@@H](n2cc(F)c(=O)[nH]c2=O)[C@H](O)[C@@H]1O [DOXIFLURIDINE] | Not Active | Not Active | Not Active | Not Active | Not Active | – | – | – | – | –
4 | Cn1c(=O)c2c(ncn2CC(O)CO)n(C)c1=O (configuration not stated) [DYPHYLLINE] | Not Active | Not Active | Not Active | Not Active | Not Active | – | – | – | – | –
5 | CC[C@H]1CN2CCc3cc(OC)c(OC)cc3[C@@H]2C[C@@H]1C[C@H]1NCCc2cc(OC)c(OC)cc21 [EMETINE] | Not Active | Not Active | Not Active | Not Active | Not Active | – | – | – | – | –
6 | C[C@@H](CO)NC(=O)[C@@H]1C=C2c3cccc4[nH]cc(c34)C[C@H]2N(C)C1 [ERGONOVINE] | Not Active | Not Active | Not Active | Not Active | Not Active | – | – | – | – | –
7 | COC(=O)CCc1ccc(OCC(O)CNC(C)C)cc1 (configuration not stated) [ESMOLOL] | Not Active | Not Active | Not Active | Not Active | Not Active | – | – | – | – | –
8 | CCC1(C)CC(=O)NC1=O (configuration not stated) [ETHOSUXIMIDE] | Not Active | Not Active | Not Active | Not Active | Not Active | – | – | – | – | –
9 | C#C[C@]1(OC(C)=O)CC[C@H]2[C@@H]3CCC4=C[C@@H](OC(C)=O)CC[C@@H]4[C@H]3CC[C@@]21C [ETHYNODIOL DIACETATE] | Not Active | Not Active | Not Active | Not Active | Not Active | – | – | – | – | –
10 | COc1cc([C@@H]2c3cc4c(cc3[C@@H](O[C@@H]3O[C@@H]5CO[C@@H](C)O[C@H]5[C@H](O)[C@H]3O)[C@H]3COC(=O)[C@H]23)OCO4)cc(OC)c1O [ETOPOSIDE] | Not Active | Not Active | Not Active | Not Active | Not Active | – | – | – | – | –
11 | C=CCc1ccc(O)c(OC)c1 [EUGENOL] | Not Active | Not Active | Not Active | Not Active | Not Active | – | – | – | – | –
12 | CC(C(=O)O)c1cccc(Oc2ccccc2)c1 (configuration not stated) [FENOPROFEN] | Not Active | Not Active | Not Active | Not Active | Not Active | – | – | – | – | –
13 | CC(C)(C)NC(=O)[C@H]1CC[C@H]2[C@@H]3CC[C@H]4NC(=O)C=C[C@]4(C)[C@H]3CC[C@]12C [FINASTERIDE] | Not Active | Not Active | Not Active | Not Active | Not Active | – | – | – | – | –
14 | COc1ccc2c3c1O[C@H]1C[C@@H](O)C=C[C@@]31CCN(C)C2 [GALANTAMINE] | Not Active | Not Active | Not Active | Not Active | Not Active | – | – | – | – | –
15 | Nc1ccn([C@@H]2O[C@H](CO)[C@@H](O)C2(F)F)c(=O)n1 [GEMCITABINE] | Not Active | Not Active | Not Active | Not Active | Not Active | – | – | – | – | –
16 | CC(C)=CCC/C(C)=C/CO [GERANIOL] | Not Active | Not Active | Not Active | Not Active | Not Active | – | – | – | – | –
17 | N=C(N)NC(=O)Cc1c(Cl)cccc1Cl [GUANFACINE] | Not Active | Not Active | Not Active | Not Active | Not Active | – | – | – | – | –
18 | Oc1c(Cl)cc(Cl)c(Cl)c1Cc1c(O)c(Cl)cc(Cl)c1Cl [HEXACHLOROPHENE] | – | Not Active | Not Active | Not Active | Not Active | – | – | – | – | 2430 nM

Row | SMILES | IC50 ([1]; insect cells) | IC50 ([2]; cho-k1) | IC50 ([3]; cho-k1) | IC50 (Melanocortin receptor 4) | IC50 [4] | IC50 ([2]; read-out: IC50) | Ki ([2]; read-out: Ki) | IC50 ([3]; read-out: IC50) | Ki ([3]; read-out: Ki) | IC50 ([1]; read-out: IC50)
19 | NNc1nncc2ccccc12 [HYDRALAZINE] | Not Active | Not Active | Not Active | Not Active | Not Active | – | – | – | – | –
20 | CC(=O)[C@@]1(O)CC[C@H]2[C@@H]3CCC4=CC(=O)CC[C@]4(C)[C@H]3CC[C@@]21C [HYDROXYPROGESTERONE] | Not Active | Not Active | Not Active | Not Active | Not Active | – | – | – | – | –
21 | COC1=C(OC)C(=O)C(CCCCCCCCCCO)=C(C)C1=O [IDEBENONE] | Not Active | Not Active | Not Active | Not Active | Not Active | – | – | – | – | –
22 | CC(C)NNC(=O)c1ccncc1 [IPRONIAZID] | Not Active | Not Active | Not Active | Not Active | Not Active | – | – | – | – | –
23 | Cc1c(OCC(F)(F)F)ccnc1C[S+]([O-])c1nc2ccccc2[nH]1 (configuration not stated) [LANSOPRAZOLE] | Not Active | Not Active | Not Active | Not Active | Not Active | – | – | – | – | –
24 | COc1ccc2[nH]cc(CCNC(C)=O)c2c1 [MELATONIN] | Not Active | Not Active | Not Active | Not Active | Not Active | – | – | – | – | –
25 | NC(=O)C[S+]([O-])C(c1ccccc1)c1ccccc1 (configuration not stated) [MODAFINIL] | Not Active | Not Active | Not Active | Not Active | Not Active | – | – | – | – | –
26 | CCN(CC)CCOCCC1=CCC2CC1C2(C)C (configuration not stated) [MYRTECAINE] | Not Active | Not Active | Not Active | Not Active | Not Active | – | – | – | – | –
27 | O=C(O)c1cccnc1Nc1cccc(C(F)(F)F)c1 [NIFLUMIC ACID] | Not Active | Not Active | Not Active | Not Active | Not Active | – | – | – | – | –
28 | O=C(N/N=C/c1ccc([N+](=O)[O-])o1)c1cc([N+](=O)[O-])cc([N+](=O)[O-])c1O [NIFURSOL] | Not Active | Not Active | Not Active | Not Active | Not Active | – | – | – | – | –
29 | COC(=O)Nc1nc2ccc(C(=O)c3cccs3)cc2[nH]1 [NOCODAZOLE] | Not Active | Not Active | Not Active | Not Active | Not Active | – | – | – | – | –
30 | C#CC1(O)CC[C@H]2[C@@H]3CCC4=CC(=O)CC[C@@H]4[C@H]3CC[C@@]21CC (some centres not stated) [NORGESTREL] | Not Active | Not Active | Not Active | Not Active | Not Active | – | – | – | – | –
31 | COC(=O)Nc1nc2ccc([S+]([O-])c3ccccc3)cc2[nH]1 (configuration not stated) [OXFENDAZOLE] | Not Active | Not Active | Not Active | Not Active | Not Active | – | – | – | – | –
32 | CC(=O)O[C@H]1C(=O)[C@@]2(C)[C@H]([C@H](OC(=O)c3ccccc3)[C@]3(O)C[C@H](OC(=O)[C@H](O)[C@@H](NC(=O)c4ccccc4)c4ccccc4)C(C)=C1C3(C)C)[C@]1(OC(C)=O)CO[C@@H]1C[C@@H]2O [PACLITAXEL] | Not Active | Not Active | Not Active | Not Active | Not Active | – | – | – | – | –
33 | C[n+]1ccc(-c2cc[n+](C)cc2)cc1.[Cl-].[Cl-] [PARAQUAT DICHLORIDE] | Not Active | Not Active | Not Active | Not Active | Not Active | – | – | – | – | –
34 | CC(C)NCC(O)COc1cccc2[nH]ccc12 (configuration not stated) [PINDOLOL] | Not Active | Not Active | Not Active | Not Active | Not Active | – | – | – | – | –
35 | CCn1cc(C(=O)O)c(=O)c2cnc(N3CCCC3)nc21 [PIROMIDIC ACID] | Not Active | Not Active | Not Active | Not Active | Not Active | – | – | – | – | –
